The record followed here is ChEMBL document CHEMBL4483862, “Open-source discovery of chemical leads for next-generation chemoprotective antimalarials” (2018).

Structures are written as SMILES.

The subject of the assay is Plasmodium berghei. Put plainly: Luciferase/luciferin-expressing antifolate-resistant parasites were used to infect a culture of HepG2 cells that were pre-incubated with compounds. Infected hepatocytes emit light due to the luciferase reaction. Assay results are presented as the percent inhibition of light emission compared to control. […]. Type of assay: functional. As to conditions: sporozoite; for IC90: read-out: LUCIFERASE INFECTION ASSAY - IC90.

Where [1] appears, read: read-out: LUCIFERASE INFECTION ASSAY - IC50.

In the case of `Cc1nn(C)c(Cl)c1/C=N/Nc1ccc([N+](=O)[O-])cc1S(=O)(=O)Nc1ccc(Cl)cc1`, the IC90 (commonly the concentration at which the effect reaches the 90% level) is over 10 µM. For the same molecule, the IC50 (in general, the concentration that inhibits the measured activity by half) (HEPG2TOX_HILL_SLOPE 1.82, HEPG2TOX_R_SQUARED 0.852, PBLUC_HILL_SLOPE 13.6, PBLUC_R_SQUARED 0.455, read-out: LUCIFERASE INFECTION ASSAY - IC50) came to 9.47 µM.

Regarding `Cc1nn(-c2ccc(Cl)cc2)c2sc(C(=O)NC(C)(C)CC(C)(C)C)cc12`, the IC90 was over 10 µM. Besides, the 50% inhibitory concentration (IC50) under setting [1] is over 10 µM.

Consider `CC(C)c1cccc(-c2nc3ccnc(NCc4ccccn4)c3[nH]2)c1`, for which the 90% effect concentration (IC90) was over 10 µM. Also, the IC50 (HEPG2TOX_HILL_SLOPE 1.38, HEPG2TOX_R_SQUARED 0.883, PBLUC_HILL_SLOPE 3.5, PBLUC_R_SQUARED 0.343, read-out: LUCIFERASE INFECTION ASSAY - IC50) amounted to 6.01 µM.

For the molecule `C(=C\c1cn2c(-c3cccnc3)cnc2cn1)/c1ccccc1`, the 90% effect concentration (IC90) was over 11.1 µM. For the setting “HEPG2TOX_HILL_SLOPE 0.303, HEPG2TOX_R_SQUARED 0.424, PBLUC_HILL_SLOPE 9.4, PBLUC_R_SQUARED 0.254, read-out: LUCIFERASE INFECTION ASSAY - IC50”, the IC50 was 8.93 µM.

Consider `CCCCn1nc(C(=O)Nc2nc(-c3ccc(CCNC(C)=O)cc3)cs2)c2ccccc2c1=O`, for which the IC90 was over 10 µM. Under setting [1], the IC50 is over 10 µM.

With `CCOc1ccccc1/C=N/n1c(-c2ccc(CC)cc2)cs/c1=N\c1cccc(OC)c1`, the IC90 came to 3.81 µM. In addition, the half-maximal inhibitory concentration (IC50) (PBLUC_HILL_SLOPE 10.6, PBLUC_R_SQUARED 0.562, read-out: LUCIFERASE INFECTION ASSAY - IC50) worked out at 3.1 µM.

On to `Cc1nn(C(C)(C)C)c2c1C(c1ccc3c(c1)OCO3)C1C(=O)CC(C)(C)CC1=N2` (stereo unspecified), for which the 90% effect concentration (IC90) is over 10 µM. Further, the IC50 (HEPG2TOX_HILL_SLOPE 2.55, HEPG2TOX_R_SQUARED 0.436, read-out: LUCIFERASE INFECTION ASSAY - IC50) is over 10 µM.

`O=C1CCC(c2ccccc2)C(=O)/C1=N\Nc1ccccc1Cl` (stereo unspecified): the concentration for an effect of 90% (IC90) is over 10.1 µM. Besides, the concentration for half-maximal inhibition (IC50) under setting [1] was over 10.1 µM.

For `Cc1cccn2cc(CN3CCN(S(=O)(=O)c4ccc(Cl)c(C(F)(F)F)c4)CC3)nc12`, the IC90 was over 10 µM. Besides, the IC50 under setting [1] is over 10 µM.

For `CCCCCCCc1ccc(NC(=O)Nc2ccc(F)cc2)cc1`, the IC90 was over 10 µM. The IC50 (FFLUC_HILL_SLOPE 255, FFLUC_R_SQUARED 0.421, PBLUC_HILL_SLOPE 1.52, PBLUC_R_SQUARED 0.706, read-out: LUCIFERASE INFECTION ASSAY - IC50) stood at 2.49 µM.

`Cc1ccc(-c2nc3cc(Br)cnc3nc2-c2ccc(C)cc2)cc1`: the 90% effect concentration (IC90) came to 6.85 µM. Moreover, the IC50 (HEPG2TOX_HILL_SLOPE 1.79, HEPG2TOX_R_SQUARED 0.907, PBLUC_HILL_SLOPE 4.08, PBLUC_R_SQUARED 0.409, read-out: LUCIFERASE INFECTION ASSAY - IC50) was determined as 4 µM.

For `COc1cn(-c2ccccc2)nc1C(=O)N1CCc2ccccc21`, the IC90 stood at 0.243 µM. In addition, the IC50 (HEPG2TOX_HILL_SLOPE 1.58, HEPG2TOX_R_SQUARED 0.907, PBLUC_HILL_SLOPE 2.39, PBLUC_R_SQUARED 0.888, read-out: LUCIFERASE INFECTION ASSAY - IC50) amounted to 0.0972 µM.

Take `Cc1nc2ccccn2c1-c1ccnn1S(=O)(=O)c1ccc(F)cc1`: the concentration for an effect of 90% (IC90) is 3.78 µM. Further, the IC50 (HEPG2TOX_HILL_SLOPE 1.46, HEPG2TOX_R_SQUARED 0.888, PBLUC_HILL_SLOPE 12.2, PBLUC_R_SQUARED 0.241, read-out: LUCIFERASE INFECTION ASSAY - IC50) stood at 3.16 µM.

`CN(C)c1cccc(-c2cnc3cnc(-c4ccccc4)cn23)c1`: the IC90 was over 10.5 µM. For the same molecule, the IC50 under setting [1] is over 10.5 µM.

For `CCCCN1C(=O)C(=O)N(CC(=O)Nc2sc(Cc3ccc4c(c3)OCO4)c(C)c2C(=O)OCC)C1=O`, the IC90 was found to be 0.0425 µM. For the same molecule, under “PBLUC_HILL_SLOPE 37.8, PBLUC_R_SQUARED 0.839, read-out: LUCIFERASE INFECTION ASSAY - IC50”, the 50% inhibitory concentration (IC50) was 0.0401 µM.

As to `COc1cc(-c2cnc3ccc(Cc4ccc(F)cc4)nn23)cc(OC)c1OC`, the IC90 is over 10 µM. Also, the half-inhibitory concentration (IC50) under setting [1] is 6.26 µM.

Turning to `O=C(Nc1nc2c(F)cc(F)cc2s1)c1cnccn1`, the IC90 was over 10 µM. The 50% inhibitory concentration (IC50) under setting [1] was over 10 µM.

In the case of `COc1ccc(-c2nn(-c3ccccc3)cc2/C=N/Nc2ncc(C(F)(F)F)cc2Cl)cc1OC`, the IC90 stood at 2.33 µM. In addition, under “HEPG2TOX_HILL_SLOPE 13.4, HEPG2TOX_R_SQUARED 0.529, PBLUC_HILL_SLOPE 3.64, PBLUC_R_SQUARED 0.734, read-out: LUCIFERASE INFECTION ASSAY - IC50”, the IC50 was determined as 1.27 µM.

`O=C(Cn1ncc(Cl)c(Cl)c1=O)Nc1cccc(Oc2ccccc2)c1`: the IC90 is over 10 µM. Also, the IC50 (FFLUC_HILL_SLOPE 8.65, FFLUC_R_SQUARED 0.47, PBLUC_HILL_SLOPE 2.15, PBLUC_R_SQUARED 0.511, read-out: LUCIFERASE INFECTION ASSAY - IC50) was 6.79 µM.

`O=C(Nc1cccnc1-n1cccn1)c1csc(-c2ccc(Cl)cc2)n1`: the 90% effect concentration (IC90) was over 2 µM. The half-maximal inhibitory concentration (IC50) under setting [1] was over 2 µM.

In the case of `COc1ccc(C(=O)c2cc(C#N)c(N)n3c2nc2ccccc23)cc1`, the IC90 was 3.53 µM. Further, under “HEPG2TOX_HILL_SLOPE 1.32, HEPG2TOX_R_SQUARED 0.922, PBLUC_HILL_SLOPE 2.77, PBLUC_R_SQUARED 0.822, read-out: LUCIFERASE INFECTION ASSAY - IC50”, the half-inhibitory concentration (IC50) came out at 1.6 µM.

On to `O=C(Nc1ccc(F)cc1)OCCSc1ccc([N+](=O)[O-])c2nonc12`, for which the IC90 was over 8.72 µM. The 50% inhibitory concentration (IC50) under setting [1] was over 8.72 µM.

In the case of `COc1ccccc1Nc1ncccc1C(=O)Nc1nc2ccccc2[nH]1`, the IC90 stood at 3.78 µM. In addition, where the note is “HEPG2TOX_HILL_SLOPE 3.87, HEPG2TOX_R_SQUARED 0.988, PBLUC_HILL_SLOPE 17.6, PBLUC_R_SQUARED 0.638, read-out: LUCIFERASE INFECTION ASSAY - IC50”, the half-inhibitory concentration (IC50) was 3.34 µM.

Regarding `CSc1nccc(-c2ccc(S(=O)(=O)N3CCCCC3)s2)n1`, the 90% effect concentration (IC90) was over 9.28 µM. For the same molecule, the IC50 under setting [1] was over 9.28 µM.

Take `Cc1ccc(CNC(=O)c2ccc(/C=C3\SC(=O)NC3=O)cc2)cc1`: the 90% effect concentration (IC90) is over 10 µM. Under “PBLUC_HILL_SLOPE 1.15, PBLUC_R_SQUARED 0.802, read-out: LUCIFERASE INFECTION ASSAY - IC50”, the IC50 came out at 2.5 µM.

Turning to `CCN(CC1COc2ccccc2O1)C(=O)c1ccccc1CSc1nc2nc(C)cc(C)n2n1` (stereo unspecified), the IC90 was over 10 µM. Under setting [1], the IC50 is over 10 µM.

Take `O=C(NCc1ccccc1)C(=Cc1ccc(-c2ccccc2)cc1)C(=O)NCc1ccccc1`: the 90% effect concentration (IC90) stood at 9.48 µM. In addition, where the note is “PBLUC_HILL_SLOPE 2.95, PBLUC_R_SQUARED 0.782, read-out: LUCIFERASE INFECTION ASSAY - IC50”, the IC50 stood at 4.51 µM.

Take `CCN(c1ccccc1)S(=O)(=O)c1cc(NC(=O)NC23CC4(C)CC(C)(CC(C)(C4)C2)C3)ccc1Cl`: the concentration for an effect of 90% (IC90) was 6.3 µM. In addition, for the setting “HEPG2TOX_HILL_SLOPE 3.39, HEPG2TOX_R_SQUARED 0.973, PBLUC_HILL_SLOPE 5.7, PBLUC_R_SQUARED 0.283, read-out: LUCIFERASE INFECTION ASSAY - IC50”, the IC50 worked out at 4.28 µM.

For `CCOC(=O)c1c(-c2csc(Nc3ccccn3)n2)c(C)n(CC)c1C`, the IC90 was over 10 µM. Also, the concentration for half-maximal inhibition (IC50) (PBLUC_HILL_SLOPE 7.74, 2.96, PBLUC_R_SQUARED 0.584, 0.552, read-out: LUCIFERASE INFECTION ASSAY - IC50) turned out to be 9.4 µM.

For `CSCCC(NCc1cc(C)n(-c2ccnn2C(C)C)c1C)c1nc2ccccc2[nH]1` (stereo unspecified), the IC90 is over 10 µM. For the same molecule, under setting [1], the IC50 was over 10 µM.

With `COC(=O)c1c(NC(=O)CSc2nnc(-c3ccccc3Cl)n2C2CCCC2)sc(C)c1C`, the IC90 was over 10 µM. For the same molecule, the IC50 (PBLUC_HILL_SLOPE 0.364, PBLUC_R_SQUARED 0.4, read-out: LUCIFERASE INFECTION ASSAY - IC50) was over 10 µM.

With `OC1(c2ccc(F)cc2)CS/C(=N\c2cccnc2)N1Cc1ccco1` (stereo unspecified), the IC90 was over 10 µM. The concentration for half-maximal inhibition (IC50) (PBLUC_HILL_SLOPE 6.5, PBLUC_R_SQUARED 0.331, read-out: LUCIFERASE INFECTION ASSAY - IC50) turned out to be 8.78 µM.

For the molecule `Cc1sc(NC(=O)CC(C)NC(=O)c2ccccc2)nc1-c1ccc(F)c(F)c1` (stereo unspecified), the concentration for an effect of 90% (IC90) was over 10 µM. For the same molecule, the 50% inhibitory concentration (IC50) under setting [1] was over 10 µM.

`CC(C)NC(=O)N1CCCC(C(=O)Nc2nc3c(ccc4ccccc43)s2)C1` (stereo unspecified): the IC90 was over 10 µM. The IC50 (PBLUC_HILL_SLOPE 2.07, PBLUC_R_SQUARED 0.824, read-out: LUCIFERASE INFECTION ASSAY - IC50) was determined as 4.39 µM.

For `Cc1cnc(C(=O)OCC(=O)N(CC(C)C)C2CCS(=O)(=O)C2)cn1` (stereo unspecified), the IC90 is over 10 µM. Besides, where the note is “HEPG2TOX_HILL_SLOPE 0.131, HEPG2TOX_R_SQUARED 0.272, PBLUC_HILL_SLOPE 1.29, PBLUC_R_SQUARED 0.0136, read-out: LUCIFERASE INFECTION ASSAY - IC50”, the concentration for half-maximal inhibition (IC50) is over 10 µM.

For the molecule `CC(C)(C)c1cc(NC(=O)COc2ccc3[nH]c4ccccc4c(=O)c3c2)n(-c2ccccc2)n1`, the IC90 turned out to be 0.752 µM. Moreover, under “FFLUC_HILL_SLOPE 14.6, FFLUC_R_SQUARED 0.0178, PBLUC_HILL_SLOPE 1.61, PBLUC_R_SQUARED 0.936, read-out: LUCIFERASE INFECTION ASSAY - IC50”, the IC50 worked out at 0.192 µM.

Consider `COc1ccc(OC)c(CCNc2nc3cnc(-c4cccc(Oc5ccccc5)c4)cc3n2C)c1`, for which the IC90 amounted to 1.51 µM. Further, under setting [1], the IC50 was 0.52 µM.

As for `Cc1ccnc(-n2c(C)c(C)c3c2ncn2nc(Cc4ccccc4)nc32)c1`, the IC90 was over 8.96 µM. For the same molecule, the IC50 under setting [1] was over 8.96 µM.
